Results as given in patent US10973763B2, “Inhalable pharmaceutical compositions” (Berg LLC, priority 2011, dated 2021).
Where “and” joins values, the source holds several entries; their conditions need not be identical. Equal values may be shown once.

Legend:
[1] = Drug loading suitable for continuous nebulization (Example 5); format: physicochemical; settings: 15-minute nebulization, Aeroneb Pro, DMPC 2.5% w/w
Procedure: Formulations were prepared based upon the general methods discussed in connection with Examples 1 and 2. For this study, specific dispersions were prepared with 50 microfluidization discrete passes using 2.5% w/w of dimyristoyl phosphatidylcholine (DMPC) and 7.5%, 7.0%, 6.0%, 5.0%, or 4.0% w/w of CoQ10. The dispersions were then aerosolized within 24 hour using an Aeroneb Pro® nebulizer for 15 minute aerosolization event. The aerosolization profile was monitored via analysis of Total Aerosol Output (TAO) and using laser diffraction with a Malvern Spraytec® coupled with an inhalation cell as described above.

[2] = test system: mice; assay: Survival and health of mice after nebulization event; format: in vivo; settings: 48 hours after the end of the nebulization event
Procedure: (§1) Animals were caged in groups of 4 and maintained on a normal rodent chow diet with free access to water. Prior to dosing, CD-1® IGS ICR mice (Charles River Laboratories International, Inc., Wilmington, Mass., USA) were individually acclimatized for approximately 10 minutes per day for 3 days into restraint tubes, restricted by an anterior nose insert and a posterior holder. The dosing apparatus was placed inside a fume hood to collect escaping aerosol containing drug. To avoid influence from the airflow provided by the fume hood, an erlenmeyer container was placed at the end of the tubing system as a buffer. The airflow rate was set to 1 L/min to ensure proper drug aerosolization into the nose-only chamber (internal volume: 230 mL; diameter: 3.8 cm; length: 20.3 cm) using an Aeroneb Pro® vibrating-mesh nebulizer (Aerogen, Galway, Ireland). Following preparation, all formulations (saline control, DMPC, DPPC, and DSPC) were dosed for 15 minutes to mice weighing from 23 to 33 g each, at time of dosing. Each single-dose studied group consisted of thirty-six male animals. At each time point (0.5, 1, 3, 8, 24, and 48 hours after the end of the aerosolization event) six animals randomly selected from different dosing events of the same formulation were sacrificed by narcosis with carbon dioxide. […]

[3] = Particle size distribution by laser diffraction (LD); format: physicochemical; settings: bulk CoQ10 powder
Procedure: Bulk CoQ10 powder was dispersed in 20% (v/v) 1,3-propanediol in deionized water for analysis of particle size distribution. This dispersed sample was then added to a small cell apparatus in a Malvern Mastersizer S® instrument (Malvern Instruments, Worcestershire, UK) equipped with a 300 mm lens until 5-10% obscuration was attained. The internal phase and dispersant refractive indexes were 1.45 and 1.33, respectively.
Particle size distribution testing of the dispersed formulations was performed with LD using a wet sample dispersion unit stirring at 1,000 rpm coupled to a Malvern Spraytec® (Malvern Instruments, Worcestershire, UK) equipped with a 300 mm lens. The dispersed formulations were added to distilled water (dispersant) until approximately 5% laser obscuration was attained. The internal phase and dispersant refractive indexes were set as 1.45 and 1.33, respectively. […] Span is a measurement of particle size distribution calculated as [Dv(90)−[…]]/Dv(50)]. […]
Particle size distribution testing of the dispersed formulations was performed with LD using a wet sample dispersion unit stirring at 1,000 rpm coupled to a Malvern Spraytec® (Malvern Instruments, Worcestershire, UK) equipped with a 300 mm lens. […] Span is the measurement of particle size distribution calculated as [Dv(90)−Dv(10)]/Dv(50)]. […]

[4] = test system: IL-12; assay: Inflammatory response: BAL supernatant ELISA for IL-12; format: in vivo, mice; settings: pulmonary administration
Procedure: The inflammatory response to the administration of hydrophobic bioactive agents (e.g., as discussed in connection with Example 1-3 above) was measured. Surgery is performed on sacrificed mice to expose the pleural cavity and trachea at the throat. […] An aliquot (about 0.75 mL) of phosphate buffered saline is instilled through the cannula into the lungs and removed to wash the bronchial and alveolar surfaces. This process is repeated for a total of three washes. The phosphate buffered saline containing cells is placed into centrifuge vials and centrifuged at about 3000 rpm (MiniSpin Plus, Eppendorf International, Hamburg, Del.). The supernatant is removed leaving the collected cells in the pellet. The supernatant from the BAL (Bronchoalveolar Lavage) is analyzed by enzyme-linked immunosorbent assay (ELISA) for IL-12 elevation (n=2 per sample tested).

[5] = CoQ10 level in lung tissue after nose-only aerosol dosing; format: in vivo, mice
Procedure: as §1, with “dioxide. As part of the collection process, blood was withdrawn by cardiac puncture, lungs were harvested, and a nasal wash was performed.” for “dioxide.”
For each experiment, CoQ10 levels were determined after liquid extraction using liquid chromatography coupled with tandem mass spectrometry (LC-MS/MS). […]
Samples were tested for normality using the Shapiro Wilk test (p<0.05) and outliers were excluded from data analysis. Pharmacokinetic parameters were determined using Microsoft Office Excel 2007 software (Redmond, Wash.) with the add-in program PKSolver. […] At each time point, lung tissue samples were analyzed for statistical differences among different groups with One-Way ANOVA for significance (p<0.05). […]

[6] = previous studies, same nebulizer

## COC1=C(OC)C(=O)C(C/C=C(\C)CC/C=C(\C)CC/C=C(\C)CC/C=C(\C)CC/C=C(\C)CC/C=C(\C)CC/C=C(\C)CC/C=C(\C)CC/C=C(\C)CCC=C(C)C)=C(C)C1=O [CoQ10, Coenzyme Q10]
[1]
  maximum nominal drug loading without intermittent mist: 4 % w/w
[2]
  survival and health of mice: all mice were alive and presenting healthy signs
[3]
  Dv(50) / particle size: 30 μm and 29.87 μm
[4]; ELISA
  IL-12 levels in BAL supernatant: not associated with a rise in IL-12 levels
[4]
  lung inflammation: does not cause lung inflammation
[5]; after 15-minute aerosol dosing
  time CoQ10 stays in the lungs at relatively high concentrations: up to 48 hours
[5]; [6]
  lung Cmax relative to cyclosporine A dispersions: ≤ 75 fold
  lung Cmax relative to itraconazole dispersions: ≤ 165 fold
